Earlier results, collected in article PMC5589077 (ACS chemical neuroscience, 2015).

Key:
[1] = pretreatment with nonreinforcing doses, without affecting motor function; cited from earlier work
[2] = molecular target: nAChRs; conditions: read-out: Ki for inhibition of [3H]epibatidine binding to nAChRs; cited from earlier work
[3] = system: α4α6β2-nAChRs; conditions: cited from earlier work

Which “effect on nicotine-induced self-administration and CPP” value [1] does the source give for `O=c1cccc2n1CC1CC2CN(CCN2CC3CC(C2)c2cccc(=O)n2C3)C1` [CC4, 1,2-bis-N-Cystinylethane] here?
The value was “significantly reduced”.

Which Ki [2] does the source give for Pyrido[3,4]homotropane [PHT] here?
Its Ki is 6.2 nM.

For `CN1CCC[C@H]1c1cccnc1` [Nicotine, nicotine], which “partial agonist activity at α4α6β2-nAChRs” value [3] is on record?
The value was 70%.
